Test results: US20080312304A1, “Topical compositions containing metronidazole” (priority 2007, published 2008)

Assays:
[1] = physical stability test of aqueous metronidazole compositions (crystal formation or precipitation); assay type: physicochemical; conditions: for Results from stability test: 1.0% metronidazole, 24 hours room temperature, then 7 days at about 4 °C; for concentration of the solubility enhancing agent required to obtain a stable aqueous solution of 1.0% metronidazole: agent used as the only solubility enhancing agent, stability test of Example 1; for N-2-hydroxyethyl urea concentration functionally equivalent to 1% of the agent in inducing the solubility enhancing effect: worked out from Examples 2, 3 and 4
Description: The solubility enhancing effect of the combination of niacinamide, urea, and hydroxyalkyl urea in increasing the solubility of metronidazole in the aqueous compositions is evaluated by physical stability of the prepared compositions.
Therefore, the compositions in accordance with the present invention are subject to a physical stability test. The protocol for the stability test is as follows: metronidazole and the solubility enhancing agents are combined with water either at room temperature or elevated temperature while stirring until dissolved. The solutions are permitted to cool to room temperature. Customary auxiliaries and additives may be added to the aqueous solutions containing solubilized metronidazole and solubility enhancing agents. The solutions may be gelled by using the suitable gelling agents. The compositions both in gel or solution form are then packaged in clear glass vials and sealed. The vials are kept at room temperature for 24 hours and monitored for crystal formation or precipitation. After 24 hours, the vials are placed in a refrigerator maintained at a temperature of about 4 ° C. for 7 days. After 7 days, the vials are removed from the refrigerator. Evidence of crystal formation or precipitation in the compositions is examined.

[2] = at 25 °C; cited from earlier work

Cc1ncc([N+](=O)[O-])n1CCO [Metronidazole, 1-(2-hydroxyethyl)-2-methyl-5-nitroimidazole]
Results from stability test ([1]; 2% niacinamide in water): Crystals formed
Results from stability test ([1]; 2.0% urea, 2.0% N-2-hydroxyethyl urea, 2.0% niacinamide in water): Clear (‘clear’ means no crystals or precipitates)
Results from stability test ([1]; 3% niacinamide in water): Crystals formed
Results from stability test ([1]; 3.0% urea, 3.0% N-2-hydroxyethyl urea, 1.5% niacinamide in water): Clear (‘clear’ means no crystals or precipitates)
Results from stability test ([1]; 4% niacinamide in water): Crystals formed
Results from stability test ([1]; 5% niacinamide in water): Clear (‘clear’ means no crystals or precipitates)
Results from stability test ([1]; 7% urea in water): Crystals formed
Results from stability test ([1]; 8% urea in water): Crystals formed
Results from stability test ([1]; 9% urea in water): Crystals formed
Results from stability test ([1]; 10% urea in water): Clear (‘clear’ means no crystals or precipitates)
Results from stability test ([1]; 13% N-2-hydroxyethyl urea in water): Crystals formed
Results from stability test ([1]; 14% N-2-hydroxyethyl urea in water): Crystals formed
Results from stability test ([1]; 15% N-2-hydroxyethyl urea in water): Crystals formed
Results from stability test ([1]; 16% N-2-hydroxyethyl urea in water): Clear (‘clear’ means no crystals or precipitates)
result from the stability test, in words ([1]; composition containing 2.0% N-2-hydroxyethyl urea, 2.0% niacinamide, 2.0% urea and 1.0% metronidazole): stable

NC(=O)NCCO [N-2-hydroxyethyl urea]
concentration of the solubility enhancing agent required to obtain a stable aqueous solution of 1.0% metronidazole [1]: about 16%

NC(=O)c1cccnc1 [niacinamide]
concentration of the solubility enhancing agent required to obtain a stable aqueous solution of 1.0% metronidazole [1]: about 5%
N-2-hydroxyethyl urea concentration functionally equivalent to 1% of the agent in inducing the solubility enhancing effect [1]: about 3.2%
water solubility limit [2]: about 50 % by weight

NC(N)=O [urea]
concentration of the solubility enhancing agent required to obtain a stable aqueous solution of 1.0% metronidazole [1]: about 10%
N-2-hydroxyethyl urea concentration functionally equivalent to 1% of the agent in inducing the solubility enhancing effect [1]: about 1.6%
